Assay results reported in PMC6290777, “Inhalation of the prodrug PI3K inhibitor CL27c improves lung function in asthma and fibrosis” (Nature Communications, 2018).

What was measured:
Format in all cases: in vivo, BALB/c mice
[1] = system: OVA-induced chronic allergic asthma; experiment: OVA-induced chronic allergic asthma model; settings: CL27c 2 mg/ml aerosol or dexamethasone 5 mg/kg
Method: (§1) BALF was performed to obtain leukocytes from alveolar space. The trachea was exposed and a 1.7-mm-outside-diameter polyethylene catheter was inserted. BAL was performed by washing the lungs three-times with three different 500 µl aliquots of PBS. BALF samples were centrifuged at 600 × g for 10 min at 4 °C on a histology glass slide and stained with Diff Quick (MICROPTIC, #DQ-ST). The number of leukocytes and differential counts of different population were obtained evaluating the percentage leukocyte populations over the total cell number.
(§2) Mice were anesthetized with a subcutaneous injection of ketamine and xylazine (130 mg/Kg ketamine and 8.5 mg/Kg xylazine) to maintain spontaneous breathing under anesthesia. Mice were tracheostomized, placed in a body plethysmograph and connected to a computer-controlled ventilator (Forced Pulmonary Maneuver System®, Buxco Research Systems©, Wilmington, North Carolina USA). First, an average breathing frequency of 160 breaths/min was imposed to the anesthetized animal by a pressure-controlled ventilation until a regular breathing pattern and complete expiration at each breathing cycle was obtained. Under mechanical respiration, respiratory flow and airway pressure were measured to compute dynamic compliance (Cdyn) and lung resistance (RL). To measure the TLC, pressure–volume maneuvers were performed, where lungs were inflated to a standard pressure of +30 cm H2O and then let slowly exhale until a negative pressure of −30 cm H2O was reached. To measure the FEV Fast-Flow Volume maneuvers was performed. In this maneuver, lungs were first inflated to +30 cm H2O (TLC) and, immediately, a negative pressure (−30 cm H2O) was applied in order to enforce expiration. To evaluate AHR, the same mice used in previous maneuvers (basal condition) received Metacholine, 1 mg/Kg (Acetyl-β-methylcholine chloride, A-2251, Sigma-Aldrich St.Louis, MO,USA) i.v., and 20 sec after, a new set of maneuvers were conducted to assess RL changes. Suboptimal maneuvers were rejected and for each test in every single mouse at least three acceptable maneuvers were conducted to obtain a reliable mean for all numeric parameters.
On day 1, BALB/c mice received systemic immunization by subcutaneous injection of 10 µg of chicken egg ovalbumin (OVA grade V, >98% pure; Sigma, St Louis, MO) diluted in 2 mg/mL Al(OH)3 followed by a booster injection at the day 14 (described in fig. 3). Nasal challenges were performed starting at the day 28, by inhalational exposure to aerosolised ovalbumin (1% ovalbumin in saline 0,9%) for 20 min per day, in alternated days during 16 days (day 28, 30, 32, 34, 36, 38, 40, 42 and 44). At the same time, mice received daily treatment from day 28 to 44 with CL27c (2 mg/ml dissolved in 0.5 % tylaxopol/saline solution, aerosolized for 30′) or vehicle (0.5% tyloxapol/saline solution, aerosolized for 30′), or dexamethasone (5 mg/kg i.p. injection). Untreated control groups included mice challenged with PBS alone. On day 45, mice were sacrificed, and samples were collected for further analysis.
(§3) IL-5, IL-13, eotaxin, TGF-β, KC, IL-17A, and MCP-1 levels in the BALF and anti-OVA IgE levels in serum were measured by ELISA technique using commercial DuoSet kits R&D Systems according to the instructions of the manufacturer. Results were expressed in levels of cytokines per ml of […] (pg/ml) or arbitrary units (A.U.).
The left lung was removed and fixed in 4% neutral phosphate-buffered formalin (pH 7.4)[10]. The tissues were dehydrated gradually in ethanol, embedded in paraffin, cut into 4 µm sections, stained with H&E, Gomori’s trichrome and periodic acid schiff (PAS), and examined under light microscopy by a pathologist in a double blinded manner. Images of lung sections were captured with a digital camera (Optronics DEI-470) connected to a microscope (Olympus IX70) with a magnification of ×40 or ×100. […]

[2] = system: OVA-induced acute allergic asthma; experiment: OVA-induced acute allergic asthma model; settings: systemic treatment, i.p.
Method: On Days 1 and 14, BALB/c mice (6–8 weeks) received an intraperitoneal injection (i.p.) of a solution containing 0.5 mg/ml OVA and 5 mg/ml Alum (described in Fig. 2). Untreated controls were injected with a solution of 5 mg/ml Alum. […] Untreated control groups included mice challenged with PBS alone. On day 29, mice were sacrificed, and samples were collected for further analysis.
as §1, §3
Immunohistochemistry for CD18 was performed using the streptavidin-biotin-peroxidase method in formalin-fixed, paraffin-embedded tissue sections (5 µm thick) mounted on poly-L-lysine-coated microscope slides. Lung cross-sections were deparaffinized and rehydrated through xylene and graded alcohols. After antigen retrieval, endogenous peroxidase was blocked (15 min) with 3% (v/v) hydrogen peroxide and washed in phosphate-buffered saline (PBS). Sections were incubated overnight (4 °C) with primary rabbit anti-CD18 antibody (Acris Antibodies GmbH, Germany, Cat. Number B0842-1) diluted 1:400 in PBS plus bovine serum albumin (PBS-BSA) or rabbit anti/PAkt (S473) diluted 1:100 in PBS/BSA. The slides were then incubated with biotinylated goat anti-rabbit antibody (Dako Agilent Pathology Solution, USA) diluted 1:1000 in PBS/BSA. After washing, the slides were incubated with avidin-biotin-horseradish peroxidase conjugate (Dako Agilent Pathology Solution, USA) for 30 min, according to the manufacturer’s instructions. CD18 and PAkt-positive cells were visualized with the chromogen 3,3′-diaminobenzidine (DAKO liquid DAB + substrate chromogen system, CA, USA). Slides were counterstained with Harry’s hematoxylin, dehydrated in a graded alcohol series, cleared in xylene, and cover slipped.
Lung, liver, and heart samples were collected for western blot detection of akt phosphorilation levels. Protein samples were resolved by 10% SDS-PAGE and transferred on to PVDF (Immobilon™-P) membranes. The membranes were blocked with 5% BSA in 1x TBS with 0.3% Tween 20 for 30 min at […]. Then, the membranes were incubated overnight at 4 °C with primary antibodies (phosphorylated Akt serine 473, 1:1000, Cell Signaling Technology, Cat. Number 4060) and 1 h with HRP-conjugated secondary antibody (1:10000). The blots were visualized in ECL solution for 1 min and images were captured on Luminescent Image Analyser (ChemiDoc Imaging Systems, Bio-Rad Laboratories, USA). For loading control, the blots were striped and reassessed with pan Akt (1:1000) antibody. For quantification, specific phosphorylation was calculated as the ratio of signals for phosphorylated Akt to the signal of total Akt detected. Values of unstimulated samples were set to 1.0. Uncropped scans of the most important blots are provided as a supplementary figure in the Supplementary Information (Supplementary Fig. 15).

[3] = system: glucocorticoid-resistant neutrophilic asthma; experiment: Glucocorticoid-resistant asthma model; settings: CL27c 2 mg/ml aerosol; dexamethasone 5 mg/kg i.p.
Method: as §1, §2, §3
On day 1 BALB/c mice received systemic immunization by subcutaneous injection of 20 µg of chicken egg ovalbumin (OVA grade V, >98% pure; Sigma, St Louis, MO) in saline, emulsified in 75 µL CFA (Complete Freund’s Adjuvant; Sigma-Aldrich) (Figure 5)[52]. On days 25–28 mice were exposed to aerosolised ovalbumin (1% in saline) for 20 min per day. Mice were exposed during 30 min to aerosolized CL27c (2 mg/ml dissolved in 0.5 % tylaxopol/saline solution) or vehicle (0.5% tyloxapol/saline solution), or to systemic treatment with dexamethasone (5 mg/kg i.p. injection). Untreated control groups included mice challenged with PBS alone. On day 29, mice were sacrificed, and samples were collected for further analysis.
The left lung was removed and fixed in 4% neutral phosphate-buffered formalin (pH 7.4)[10]. The tissues were dehydrated gradually in ethanol, embedded in paraffin, cut into 4 µm sections, stained with H&E, Gomori’s trichrome and periodic acid schiff (PAS), and examined under light microscopy by a pathologist in a double blinded manner. Images of lung sections were captured with a digital camera (Optronics DEI-470) connected to a microscope (Olympus IX70) with a magnification of ×40 or ×100. Inflammation was scored according to modification of existing protocols[53] and to the histopathology criteria reported in Supplementary Table 4.

C[C@@H]1C[C@H]2[C@@H]3CCC4=CC(=O)C=C[C@]4(C)[C@@]3(F)[C@@H](O)C[C@]2(C)[C@@]1(O)C(=O)CO [Dexamethasone, reference compound]
accumulation of inflammatory cells in peribronchial and perivascular spaces [1]: significantly decreased | lung function: lung resistance (RL) and dynamic compliance (Cdyn) [1]: normalize lung function | peribronchial fibrosis (fibrotic airway remodeling) [1]: significantly reduced | BALF accumulation of inflammatory cells [2]: significantly reduced this infiltration | histopathology: overall score of lung damage / tissue inflammation [3]: failed to provide an effect
